From patent US7199216B1, “Peptide constructs for treating autoimmune and related diseases” (Cel-Sci Corporation, priority 1999, dated 2007)
No end group written: not given here.

Legend:
[1] = Immunogenicity of TCBL peptides judged by development of antibodies that react to the peptides; format: in vivo; details: judged by the lack of developing antibodies that react to these peptides
Excerpt: (§1) The antigenic portion My-1 of these constructs is immunogenic in several strains of mice and in rabbits.

[2] = system: A/J strain of mice; details: injected in the presence of adjuvant; cited from earlier work
[3] = system: several strains of mice; experiment: Immunogenicity in mice; format: in vivo
Excerpt: as §1

[4] = system: rabbits; experiment: Immunogenicity in rabbits; format: in vivo
Excerpt: as §1

Q: Which immunogenicity [1] does the source give for “Asn Gly Gln Glu Glu (Xaa) Ala Gly Val Val Ser Thr Gly Leu Ile [m-G]” here?
A: only poorly immunogenic

Q: Which immunogenicity [1] does the source give for “Asp Leu Leu Lys Asn Gly Glu Arg (Xaa) Glu Lys Val Glu [m-J]” here?
A: only poorly immunogenic

Q: Which results are given for “DSAFDVLSFTAEEKAGVYK [myocardiogenic peptide derived from murine cardiac myosin heavy chain (amino acids 334–352)]”?
A: induction of myocarditis [2]: induce severe myocarditis; immunogenicity [3]: immunogenic; immunogenicity [4]: immunogenic

Q: With “NGQEEKAGVVSTGLI (peptide G) [non-modified TCBL from the beta-2 domain of HLA/MHC class II molecule]” as the substance, how does the immunogenicity [1] read?
A: only poorly immunogenic
